Source: patent US8772500B2, “TRPV3 modulators” (AbbVie Inc., priority 2011, dated 2014)

What was measured:
[1] = In vitro rat microsomal stability assay; assay type: in vitro ADME, rat (Sprague-Dawley)
In short: (§1)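 Stability readout reflects compound turnover by hepatic microsomes from Sprague-Dawley rats or from humans, according to the assay. Reactions at 37 °C contained NADPH, which was present in the zero-time plates as well.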

[2] = In vitro human microsomal stability assay; assay type: in vitro ADME
In short: as §1

[3] = molecular target: T1, human TRPV3 (Homo sapiens, UniProt Q8NET8); experiment: In vitro antagonism of recombinant human TRPV3 activation (FLIPR Tetra calcium assay, 2-APB as agonist); assay type: cell-based; conditions: HEK293 cells stably expressing human TRPV3; 2-APB 80 μM; range class; read-out: IC50 (reported range)
T1 construct: expressed in transfected cells
T1 sequence (Q8NET8 1-790): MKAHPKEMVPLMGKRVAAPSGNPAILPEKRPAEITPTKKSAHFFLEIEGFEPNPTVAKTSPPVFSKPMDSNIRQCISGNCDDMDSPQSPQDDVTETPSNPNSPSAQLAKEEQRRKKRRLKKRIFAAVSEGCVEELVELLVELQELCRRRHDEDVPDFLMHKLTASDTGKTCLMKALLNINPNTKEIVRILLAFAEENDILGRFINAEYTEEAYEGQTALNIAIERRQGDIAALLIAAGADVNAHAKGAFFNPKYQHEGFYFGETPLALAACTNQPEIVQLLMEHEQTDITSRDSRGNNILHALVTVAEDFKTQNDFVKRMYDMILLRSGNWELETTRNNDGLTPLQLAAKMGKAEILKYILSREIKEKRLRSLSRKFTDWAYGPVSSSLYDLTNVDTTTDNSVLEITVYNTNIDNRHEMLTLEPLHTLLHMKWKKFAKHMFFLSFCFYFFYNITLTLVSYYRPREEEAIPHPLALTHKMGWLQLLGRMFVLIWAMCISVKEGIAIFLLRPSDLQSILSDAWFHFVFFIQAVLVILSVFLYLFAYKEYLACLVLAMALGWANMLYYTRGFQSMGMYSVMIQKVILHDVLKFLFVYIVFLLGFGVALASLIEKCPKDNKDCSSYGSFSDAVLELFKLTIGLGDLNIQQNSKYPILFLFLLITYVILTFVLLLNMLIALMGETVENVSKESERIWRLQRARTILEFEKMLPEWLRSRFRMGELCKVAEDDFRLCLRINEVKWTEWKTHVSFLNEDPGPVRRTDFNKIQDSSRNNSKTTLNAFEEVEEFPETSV
In short: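 Readout is FLIPR fluorescence, max minus min as percent of uninhibited 2-APB response, giving IC50 (usually mean of ≥2 runs). Stable human TRPV3 HEK293 cells, Calcium-4 dye-loaded, got test compound then, three minutes later, 80 μM 2-APB (EC80); run length 10 min.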

[4] = Sprague-Dawley, rat, 0.5 h, 0.5 μM, pH 7.4
[5] = 0.5 μM substrate, 0.25 mg/mL microsomal protein, pH 7.4, 37° C., NADPH, 30 minutes

| SMILES | RAT MICROSOMAL STABILITY (% REMAINING AFTER 30 MINUTES) [1, 4] [%] | HUMAN MICROSOMAL STABILITY (% REMAINING AFTER 30 MINUTES) ([2]; human, 0.5 h, 0.5 μM, pH 7.4) [%] | IC50 [3] [µM] | RAT […] (% REMAINING AFTER 30 MINUTES) [1, 5] [%] | HUMAN […] (% REMAINING AFTER 30 MINUTES) [2, 5] [%] | RAT MICROSOMAL STABILITY (% REMAINING AFTER 30 MINUTES) [1, 5] [%] | HUMAN MICROSOMAL STABILITY (% REMAINING AFTER 30 MINUTES) [2, 5] [%] |
| --- | --- | --- | --- | --- | --- | --- | --- |
| OC(c1ccccn1)C1(c2ccc(C(F)(F)F)cc2)CCCO1 (stereo not drawn) [Example 89, (syn)-pyridin-2-yl{2-[4-(trifluoromethyl)phenyl]tetrahydrofuran-2-yl}-methanol] | 4.3 | 70 | 1.1 to 5 |  |  |  |  |
| Cc1ccccc1C1(C(O)c2ccccn2)CCC1 (stereo not drawn) [Example 7, [1-(2-methylphenyl)cyclobutyl](pyridin-2-yl)methanol] | 0.32 | 0.15 | 5.1 to 20 |  |  |  |  |
| Cc1ccccc1C(C)C1(C(O)c2ccccn2)CCC1 (stereo not drawn) [Example 45, {1-[1-(2-methylphenyl)ethyl]cyclobutyl}(pyridin-2-yl)methanol] | 0.02 | 0.03 | 1.1 to 5 |  |  |  |  |
| Cc1cccnc1[C@@H](O)C1(c2ccc(Cl)c(Cl)c2)CCC1 [Example 30, (S)-[1-(3,4-dichlorophenyl)cyclobutyl](3-methylpyridin-2-yl)methanol] | 0.98 | 1.5 | 1.1 to 5 |  |  |  |  |
| CC(c1ccc(Cl)cc1)C1(C(O)c2ccccn2)CCC1 (stereo not drawn) [Example 49, {1-[1-(4-chlorophenyl)ethyl]cyclobutyl}(pyridin-2-yl)methanol] | 0.13 | 15 | 1.1 to 5 |  |  |  |  |
| CC1(O)CC(c2ccc(C(F)(F)F)cc2)([C@H](O)c2ccccn2)C1 (stereo in doubt) [Example 233, trans-3-[(S)-hydroxy(pyridin-2-yl)methyl]-1-methyl-3-[4-(trifluoromethyl)-phenyl]cyclobutanol] |  |  | 5.1 to 20 | 67 | >85 |  |  |
| OC(c1ccccn1)C1(c2ccc(C(F)(F)F)cc2)CCCO1 (stereo not drawn) [Example 88, (anti)-pyridin-2-yl{2-[4-(trifluoromethyl)phenyl]tetrahydrofuran-2-yl}-methanol] | 7.0 | 38 | 0.05 to 0.5 |  |  |  |  |
| OC(c1ccccn1)C1(c2cccc(OC(F)(F)F)c2)CCCO1 (stereo not drawn) [Example 93, (syn)-pyridin-2-yl{2-[3-(trifluoromethoxy)phenyl]tetrahydrofuran-2-yl}-methanol] | 0.33 | 12 | 0.501 to 1 |  |  |  |  |
| COC1CC(c2ccc(Cl)c(Cl)c2)([C@H](O)c2ccccn2)C1 (stereo partly drawn) [Example 151, (S)-[1-(3,4-dichlorophenyl)-3-methoxycyclobutyl](pyridin-2-yl)methanol] | <0.01 | 32 | 1.1 to 5 |  |  |  |  |
| Cc1ccc(CC2(C(O)c3ccccn3)CCC2)cc1 (stereo not drawn) [Example 52, [1-(4-methylbenzyl)cyclobutyl](pyridin-2-yl)methanol] | 0.05 | 1.7 | 1.1 to 5 |  |  |  |  |
| CN1CCC(c2ccc(OC(F)(F)F)cc2)(C(O)c2ccccn2)CC1 (stereo not drawn) [Example 145, {1-methyl-4-[4-(trifluoromethoxy)phenyl]piperidin-4-yl}(pyridin-2-yl)-methanol] |  |  | 1.1 to 5 |  |  | 42 | 68 |
| OC(c1ccccn1)C1(c2ccc(C(F)(F)F)cc2)CC(F)(F)C1 (stereo not drawn) [Example 133, {3,3-difluoro-1-[4-(trifluoromethyl)phenyl]cyclobutyl}(pyridin-2-yl)-methanol] | 61 | 73 | 0.05 to 0.5 |  |  |  |  |

Further lines, with some results ahead:

| RAT MICROSOMAL STABILITY (% REMAINING AFTER 30 MINUTES) [1, 4] [%] | HUMAN MICROSOMAL STABILITY (% REMAINING AFTER 30 MINUTES) ([2]; human, 0.5 h, 0.5 μM, pH 7.4) [%] | IC50 [3] [µM] | SMILES | RAT […] (% REMAINING AFTER 30 MINUTES) [1, 5] [%] | HUMAN […] (% REMAINING AFTER 30 MINUTES) [2, 5] [%] | RAT MICROSOMAL STABILITY (% REMAINING AFTER 30 MINUTES) [1, 5] [%] | HUMAN MICROSOMAL STABILITY (% REMAINING AFTER 30 MINUTES) [2, 5] [%] |
| --- | --- | --- | --- | --- | --- | --- | --- |
| 0.054 | >85 | 5.1 to 20 | OC(c1ccccn1)C1(C2CCCOC2)CCC1 (stereo not drawn) [Example 281, pyridin-2-yl[1-(tetrahydro-2H-pyran-3-yl)cyclobutyl]methanol] |  |  |  |  |
| <0.01 | 45 | 5.1 to 20 | OC(c1ccccn1)C1(c2cccc(C(F)(F)F)c2)CC2(C1)OCCO2 (stereo not drawn) [Example 242, pyridin-2-yl{2-[3-(trifluoromethyl)phenyl]-5,8-dioxaspiro[3.4]oct-2-yl}-methanol] |  |  |  |  |
| 21 | 49 | 5.1 to 20 | CC(C)(C)OC(=O)N1CC(c2ccc(C(F)(F)F)cc2)(C(O)c2ccccn2)C1 (stereo not drawn) [Example 153, tert-butyl 3-[hydroxy(pyridin-2-yl)methyl]-3-[4-(trifluoromethyl)phenyl]-azetidine-1-carboxylate] |  |  |  |  |
| <0.01 | <0.01 | 1.1 to 5 | OC(C1CCCc2cccnc21)C1(c2cccc(C(F)(F)F)c2)CCC1 (stereo not drawn) [Example 179, (anti)-5,6,7,8-tetrahydroquinolin-8-yl{1-[3-(trifluoromethyl)phenyl]-cyclobutyl}methanol] |  |  |  |  |
| 65 | 45 | 1.1 to 5 | O[C@@H](c1ccccn1)C1(c2ccc(OC(F)(F)F)cc2)CC(F)(F)C1 [Example 159, (R)-{3,3-difluoro-1-[4-(trifluoromethoxy)phenyl]cyclobutyl}(pyridin-2-yl)methanol] |  |  |  |  |
| 13 | 41 | 0.501 to 1 | CC1(O)CC(c2cncc(C(F)(F)F)c2)(C(O)c2ccccn2)C1 [Example 308, cis-3-[(S)-hydroxy(pyridin-2-yl)methyl]-1-methyl-3-[5-(trifluoromethyl)-pyridin-3-yl]cyclobutanol] |  |  |  |  |
| 74 | >85 | 5.1 to 20 | CC1(O)CC(c2ccc(OC(F)(F)F)cc2)(C(O)c2ccccn2)C1 [Example 203, trans-3-[(S)-hydroxy(pyridin-2-yl)methyl]-1-methyl-3-[4-(trifluoromethoxy)-phenyl]cyclobutanol] |  |  |  |  |
| 0.14 | 46 | 1.1 to 5 | OC(c1ccccn1)C1(c2nc3ccccc3s2)CCC1 (stereo not drawn) [Example 266, [1-(1,3-benzothiazol-2-yl)cyclobutyl](pyridin-2-yl)methanol] |  |  |  |  |
| <0.01 | 54 | 5.1 to 20 | OC(c1ccccn1)C1(c2ccc(F)c(Cl)c2)CC2(C1)OCCO2 (stereo not drawn) [Example 255, [2-(3-chloro-4-fluorophenyl)-5,8-dioxaspiro[3.4]oct-2-yl](pyridin-2-yl)-methanol] |  |  |  |  |
| <0.01 | 61 | 1.1 to 5 | OC(c1ccccn1)C1(c2ccc(C(F)(F)F)cc2)CC2(C1)OCCO2 (stereo not drawn) [Example 161, pyridin-2-yl{2-[4-(trifluoromethyl)phenyl]-5,8-dioxaspiro[3.4]oct-2-yl}-methanol] |  |  |  |  |
| 8.6 | 62 | 1.1 to 5 | OC(c1ccccn1)C1(c2nc3ccccc3o2)CCC1 (stereo not drawn) [Example 271, [1-(1,3-benzoxazol-2-yl)cyclobutyl](pyridin-2-yl)methanol] |  |  |  |  |
| <0.01 | <0.01 | 5.1 to 20 | CC(=O)O[C@H](c1ccccn1)C1(c2ccc(OC(F)(F)F)cc2)CCC1 [Example 288, (S)-pyridin-2-yl{1-[4-(trifluoromethoxy)phenyl]cyclobutyl}methyl acetate] |  |  |  |  |
| 41 | >85 | 1.1 to 5 | N[C@@H]1CCC[C@@H]1[C@@H](O)C1(c2ccc(Cl)c(Cl)c2)CCC1 [Example 216, (R)-[(1S,2R)-2-aminocyclopentyl][1-(3,4-dichlorophenyl)cyclobutyl]-methanol] |  |  |  |  |
| 62 | 83 | 1.1 to 5 | NC1CCCC1C(O)C1(c2ccc(OC(F)(F)F)cc2)CCC1 (stereo not drawn) [Example 206, (2-aminocyclopentyl){1-[4-(trifluoromethoxy)phenyl]cyclobutyl}methanol] |  |  |  |  |
